For data set [1], the target named is isoprene synthase (PcISPS) (Populus tremula x Populus alba, UniProt Q9AR86, C533W/K308R/N59D). As to the kind of experiment: competitive inhibition of isoprene formation, SBSE GC-MS assay. The format is biochemical.
Substrate in the data set “enzyme kinetics”: CC(C)=CCOP(=O)(O)OP(=O)(O)O
The experiment in a line: enzyme kinetics. To be noted: Mg2+ active site. The format is biochemical, Populus tremula x Populus alba.

For orientation: Ki means the dissociation constant of the complex between target and ligand, obtained from inhibition or displacement. Molecule `CC(C)=CCC/C(C)=C/COP(=O)(O)OP(=O)(O)O` [GPP, geranyl diphosphate] returned a Ki in data set [1] of 550 µM.

B1: isoprene synthase (PcISPS) (Populus tremula x Populus alba; C533W/K308R/N59D) (protein)
chain: EARRSADYEPNSWDYDFLLSSDTDESIEVYKDKAKKLEAEVRREINNEKAEFLTLLELIDNVQRLGLGYRFESDIRRALDRFVSSGGFDGVTKTSLHATALSFRLLRQHGFEVSQEAFSGFKDQNGNFLENLKEDTKAILSLYEASFLALEGENILDEARVFAISHLKELSEEKIGKELAEQVNHALELPLHRRTQRLEAVWSIEAYRKKEDANQVLLELAILDYNMIQSVYQRDLRETSRWWRRVGLATKLHFARDRLIESFYWAVGVAFEPQYSDCRNSVAKMFSFVTIIDDIYDVYGTLDELELFTDAVERWDVNAINDLPDYMKLCFLALYNTINEIAYDNLKDKGENILPYLTKAWADLCNAFLQEAKWLYNKSTPTFDDYFGNAWKSSSGPLQLIFAYFAVVQNIKKEEIENLQKYHDIISRPSHIFRLCNDLASASAEIARGETANSVSCYMRTKGISEELATESVMNLIDETWKKMNKEKLGGSLFAKPFVETAINLARQSHCTYHNGDAHTSPDELTRKRVLSVITEPILPFER
One may read the Km as the substrate concentration at which the rate is half of its maximum. On to B1, for which the Km in “enzyme kinetics” was 3 mM.

For the origin of these results see article PMC2942996 (Journal of molecular biology, 2010).
